Measured values published in PubChem BioAssay AID330 (DTP/NCI, 2004).
Values joined by “and” are separate entries in the source; they are usually repeats but may differ in a detail not shown here. Equal values may be shown once. Toxic doses and inconclusive results are not listed.

System: P388 leukemia ip, CD2F1 mice, survival T/C
Test: NCI In Vivo Anticancer Drug Screen. Data for tumor model P388 Leukemia (intraperitoneal) in CD2F1 (CDF1) mice
Conditions: endpoint: median survival time, higher = longer survival
How it was run: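 Mice carrying the transplanted tumor received test compound or vehicle. Survival was recorded in each group, and the value is the treated-group measurement divided by that of the vehicle-treated control group.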

With Cc1ccc(CNc2ccccc2)cc1 the T/C (dose: 100.0 mg/kg/injection, schedule: Q01DX009 (ip), vehicle: other) was 100 % of control, the T/C (dose: 200.0 mg/kg/injection, schedule: Q01DX009 (ip), vehicle: other) was 100 % of control and the T/C (dose: 400.0 mg/kg/injection, schedule: Q01DX009 (ip), vehicle: other) was 100 % of control.
Clc1cc(-c2ccccc2)no1 was tested, and the T/C (dose: 25.0 mg/kg/injection, schedule: Q04DX003 (ip), vehicle: Klucel (hydroxypropylcellulose) (HPC)) was 109 % of control, the T/C (dose: 50.0 mg/kg/injection, schedule: Q04DX003 (ip), vehicle: Klucel (hydroxypropylcellulose) (HPC)) was 108 % of control and the T/C (dose: 100.0 mg/kg/injection, schedule: Q04DX003 (ip), vehicle: Klucel (hydroxypropylcellulose) (HPC)) was 99 % of control and 112 % of control.
O=C1NC(CN2CCCCC2)C(=O)NC1CN1CCCCC1 (centres undefined) was tested, and the T/C (dose: 60.0 mg/kg/injection, schedule: Q01DX005 (ip), vehicle: Klucel (hydroxypropylcellulose) (HPC)) was 89 % of control and the T/C (dose: 120.0 mg/kg/injection, schedule: Q01DX005 (ip), vehicle: Klucel (hydroxypropylcellulose) (HPC)) was 92 % of control.
COc1cccc2c(NCCCCCCCCNc3c4ccc([N+](=O)[O-])cc4nc4c(OC)cccc34)c3ccc([N+](=O)[O-])cc3nc12 was tested, and the T/C (dose: 2.5 mg/kg/injection, schedule: Q01DX009 (ip), vehicle: other) was 157 % of control, the T/C (dose: 5.0 mg/kg/injection, schedule: Q01DX009 (ip), vehicle: other) was 152 % of control and the T/C (dose: 10.0 mg/kg/injection, schedule: Q01DX009 (ip), vehicle: other) was 158 % of control and 172 % of control. The T/C (dose: 20.0 mg/kg/injection, schedule: Q01DX009 (ip), vehicle: other) was 170 % of control and the T/C (dose: 40.0 mg/kg/injection, schedule: Q01DX009 (ip), vehicle: other) was 166 % of control.
For CCCCCCCCCCSCC, the T/C (dose: 100.0 mg/kg/injection, schedule: Q01DX009 (ip), vehicle: saline) was 95 % of control, the T/C (dose: 100.0 mg/kg/injection, schedule: Q04DX003 (ip), vehicle: saline) was 100 % of control and the T/C (dose: 200.0 mg/kg/injection, schedule: Q01DX009 (ip), vehicle: saline) was 100 % of control. For the same compound, the T/C (dose: 200.0 mg/kg/injection, schedule: Q04DX003 (ip), vehicle: saline) was 91 % of control, the T/C (dose: 400.0 mg/kg/injection, schedule: Q01DX009 (ip), vehicle: saline) was 104 % of control and the T/C (dose: 400.0 mg/kg/injection, schedule: Q04DX003 (ip), vehicle: saline) was 100 % of control.
In the case of C=CC(=O)NC(=O)Nc1ccccc1Cl, the T/C (dose: 6.25 mg/kg/injection, schedule: Q01DX009 (ip), vehicle: Klucel (hydroxypropylcellulose) (HPC)) is reported as 102 % of control, the T/C (dose: 12.5 mg/kg/injection, schedule: Q01DX009 (ip), vehicle: Klucel (hydroxypropylcellulose) (HPC)) is reported as 106 % of control and the T/C (dose: 25.0 mg/kg/injection, schedule: Q01DX009 (ip), vehicle: Klucel (hydroxypropylcellulose) (HPC)) is reported as 109 % of control and 118 % of control.
With NCCNCC[OH2+].NCCNCC[OH2+].[Ni+2].[O-][Cl+3]([O-])([O-])[O-] the T/C (dose: 12.5 mg/kg/injection, schedule: Q01DX009 (ip), vehicle: saline) was 100 % of control, the T/C (dose: 25.0 mg/kg/injection, schedule: Q01DX009 (ip), vehicle: saline) was 93 % of control and the T/C (dose: 50.0 mg/kg/injection, schedule: Q01DX009 (ip), vehicle: saline) was 106 % of control and 93 % of control.
CCn1c2ccccc2c2cc(N=Nc3cc[n+]([O-])c4c(O)cccc34)ccc21 was tested, and the T/C (dose: 5.0 mg/kg/injection, schedule: Q01DX009 (ip), vehicle: saline with Tween-80) was 110 % of control, the T/C (dose: 10.0 mg/kg/injection, schedule: Q01DX009 (ip), vehicle: saline with Tween-80) was 102 % of control and the T/C (dose: 20.0 mg/kg/injection, schedule: Q01DX009 (ip), vehicle: saline with Tween-80) was 106 % of control. For the same compound, the T/C (dose: 40.0 mg/kg/injection, schedule: Q01DX009 (ip), vehicle: saline with Tween-80) was 107 % of control and the T/C (dose: 50.0 mg/kg/injection, schedule: Q01DX009 (ip), vehicle: saline with Tween-80) was 86 % of control.
In the case of CCO/C=C1/N=C(COc2ccc(Cl)cc2C)OC1=O, the T/C (dose: 60.0 mg/kg/injection, schedule: Q01DX005 (ip), vehicle: saline with Tween-80) is reported as 101 % of control, the T/C (dose: 120.0 mg/kg/injection, schedule: Q01DX005 (ip), vehicle: saline with Tween-80) is reported as 108 % of control and the T/C (dose: 240.0 mg/kg/injection, schedule: Q01DX005 (ip), vehicle: saline with Tween-80) is reported as 95 % of control.
For CCCCCC(=O)C(C)(c1nc2nnc(N)n2[nH]c1=O)c1nc2nnc(N)n2[nH]c1=O, the T/C (dose: 50.0 mg/kg/injection, schedule: Q01DX005 (ip), vehicle: saline with Tween-80) was 93 % of control, the T/C (dose: 100.0 mg/kg/injection, schedule: Q01DX005 (ip), vehicle: saline with Tween-80) was 93 % of control and the T/C (dose: 200.0 mg/kg/injection, schedule: Q01DX005 (ip), vehicle: saline with Tween-80) was 94 % of control.
With Cc1ccc(/C(CBr)=N/N=C(/CBr)c2ccc(C)cc2)cc1 the T/C (dose: 50.0 mg/kg/injection, schedule: Q01DX009 (ip), vehicle: Klucel (hydroxypropylcellulose) (HPC)) was 100 % of control, the T/C (dose: 100.0 mg/kg/injection, schedule: Q01DX009 (ip), vehicle: Klucel (hydroxypropylcellulose) (HPC)) was 92 % of control and the T/C (dose: 200.0 mg/kg/injection, schedule: Q01DX009 (ip), vehicle: Klucel (hydroxypropylcellulose) (HPC)) was 98 % of control.
Fc1ccnc(F)n1 was tested, and the T/C (dose: 25.0 mg/kg/injection, schedule: Q04DX003 (ip), vehicle: water) was 100 % of control and the T/C (dose: 50.0 mg/kg/injection, schedule: Q04DX003 (ip), vehicle: water) was 104 % of control.
Cc1ccnc(NCCCNc2nccc(C)n2)n1 was tested, and the T/C (dose: 50.0 mg/kg/injection, schedule: Q01DX005 (ip), vehicle: Klucel (hydroxypropylcellulose) (HPC)) was 102 % of control, the T/C (dose: 100.0 mg/kg/injection, schedule: Q01DX005 (ip), vehicle: Klucel (hydroxypropylcellulose) (HPC)) was 96 % of control and the T/C (dose: 200.0 mg/kg/injection, schedule: Q01DX005 (ip), vehicle: Klucel (hydroxypropylcellulose) (HPC)) was 88 % of control.
